Results from US8247423B2, “Methods and compositions for the treatment of cancer, tumors, and tumor-related disorders” (Tragara Pharmaceuticals, Inc., priority 2007, dated 2012).

Assay: clinical
Settings: human, in vivo, po
Procedure: Methods: Subjects with recurrent or metastatic NSCLC were treated with erlotinib (150 mg/day PO) and escalating doses of 2-(4-ethoxyphenyl)-4-methyl-1-(4-sulfamoylphenyl)-pyrrole (100-1200 mg/day PO). Pharmacokinetics for 2-(4-ethoxyphenyl)-4-methyl-1-(4-sulfamoylphenyl)-pyrrole and erlotinib were evaluated.

Tmax: 2 h | half-life: 11.8 h
SMILES: CCOc1ccc(-c2cc(C)cn2-c2ccc(S(N)(=O)=O)cc2)cc1
